# Test results from PubChem BioAssay AID651630 (Sanford-Burnham Center for Chemical Genomics, 2012).
# pIC50: −log10 of the molar value. Active and inactive are the calls of the source.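 The calls were made as follows: active = lipid-stain IC50 at or below a set limit, with nuclear-stain toxicity IC50 at least five times higher; inactive = the rest.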
# Tests used:
# TAG = experiment: triacylglycerol accumulation inhibitor potency, dose response, cell-based, panel, Nile Red and DAPI fluorescence, H9c2 (AID 651630); conditions: H9c2 cells, Nile Red TAG fluorescence, oleic acid;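 also: cells exposed to compound overnight before fixation and staining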
# DAPI = experiment: as above; conditions: H9c2 cells, DAPI nuclear fluorescence (cytotoxicity counter-readout), oleic acid
SMILES,pIC50 (TAG; mean of runs),pIC50 (TAG; run 1),pIC50 (TAG; run 2),IC50 (TAG; mean of runs),IC50 cytotoxicity (DAPI nuclear signal decrease) (DAPI; mean of runs),IC50 cytotoxicity (DAPI nuclear signal decrease) (DAPI; run 1),IC50 cytotoxicity (DAPI nuclear signal decrease) (DAPI; run 2)
CNC(=O)c1ccc(-c2sc3nc(N4CCOCC4)c4c(c3c2N)CC(C)(C)OC4)o1,5.01,4.88,5.20,–,> 25 µM (inactive),> 25 µM,> 25 µM
COC(=O)[C@]1(CC(C)C)N[C@H](c2ccc(-c3ccc(F)cc3)cc2)[C@@H]2C(=O)N(C)C(=O)[C@@H]21,4.83,4.84,4.82,–,> 25 µM (inactive),> 25 µM,> 25 µM
O=C(Cc1coc2ccc3ccccc3c12)Nc1nccs1,–,< 4.60,< 4.60,> 25 µM (inactive),> 25 µM (inactive),> 25 µM,> 25 µM
COC(=O)Nc1nc2ccc(SC(C)C)cc2[nH]1,–,< 4.60,4.86,–,> 25 µM (inactive),> 25 µM,> 25 µM
CCOc1c(Br)cc(CNC2CCCCCCC2)cc1OC,–,< 4.60,< 4.60,> 25 µM (inactive),19.7 µM (inactive),18.8 µM,20.6 µM
CC(C)C[C@H]1CNC(=S)N1CC1CCCN1C[C@H](CC(C)C)N1C[C@H](CC(C)C)N(CCc2ccccc2)C1=S (some centres undefined),4.84,4.81,4.87,–,> 25 µM (inactive),> 25 µM,> 25 µM
O=C(CCC1CCCCC1)NCCN1C2=NC[C@@H](Cc3ccccc3)N2C[C@H]1Cc1ccc(O)cc1,–,< 4.60,< 4.60,> 25 µM (inactive),> 25 µM (inactive),> 25 µM,> 25 µM
CCN1CCN(Cc2ccc(NC(=O)c3cc(NC(=O)c4cc5cccc(OC)c5o4)cc(OC)c3)cc2C(F)(F)F)CC1,4.86,4.89,4.82,–,> 25 µM (inactive),> 25 µM,> 25 µM
COc1cc(Cn2c(-c3nonc3N)nc3ccccc32)ccc1C,–,4.61,< 4.60,–,> 25 µM (inactive),> 25 µM,> 25 µM
COc1ccc(CNC(=O)Nc2nc(C(N)Cc3ccc(Cl)cc3)cs2)cc1 (centres undefined),–,< 4.60,< 4.60,> 25 µM (inactive),21.7 µM (inactive),19.5 µM,23.9 µM
CCN(CC)CCn1c(SCC(=O)Nc2cccc(OC)c2)nc2c(sc3ccccc32)c1=O,4.86,4.78,4.98,–,> 25 µM (inactive),> 25 µM,> 25 µM
OCCCn1c(C2CCCN2c2nc(-c3ccc(F)cc3)cs2)nc2cc(C(F)(F)F)ccc21 (centres undefined),4.85,4.85,4.86,–,> 25 µM (inactive),> 25 µM,> 25 µM
COc1cc(NC(=O)c2ccco2)c(OC)cc1NC(=O)CCC(=O)Nc1cccc(C)c1C,–,< 4.60,4.65,–,> 25 µM (inactive),> 25 µM,> 25 µM
Fc1cccc(Nc2nc(-c3ccncc3)nc3ccccc23)c1,–,< 4.60,< 4.60,> 25 µM (inactive),> 25 µM (inactive),> 25 µM,> 25 µM
CC(CC(=O)Nc1ccc2c(c1)c(=O)n(C)n2-c1ccc2ccccc2c1)C(F)(F)F (centres undefined),–,< 4.60,< 4.60,> 25 µM (inactive),> 25 µM (inactive),> 25 µM,> 25 µM
CCc1ccc(/C=N/NC(=O)c2cc(C3CC3)nc3ccc(Br)cc23)s1,–,< 4.60,< 4.60,> 25 µM (inactive),> 25 µM (inactive),> 25 µM,> 25 µM
COc1ccc(-c2cc(C(=O)Nc3cc(OC)cc(C(=O)Nc4cccc(C(F)(F)F)c4)c3)[nH]n2)cc1,–,< 4.60,5.33,–,> 25 µM (inactive),> 25 µM,> 25 µM
C=CCC[C@H](Cc1ccc(F)cc1)C(=O)OC[C@H](C)NC(=O)[C@@H](CC=C)CC(=O)N[C@H](CO)Cc1ccccc1,–,4.92,4.72,15.4 µM (inactive),> 25 µM (inactive),> 25 µM,> 25 µM
CNC(=S)NN=C(C)c1ccc(OC)cc1O,–,< 4.60,< 4.60,> 25 µM (inactive),> 25 µM (inactive),> 25 µM,> 25 µM
C[C@H]1CCCCO[C@H](CN(C)CC2CCCCC2)[C@@H](C)CN([C@@H](C)CO)C(=O)c2cc(NS(=O)(=O)c3ccccc3)ccc2O1,–,4.65,< 4.60,–,> 25 µM (inactive),> 25 µM,> 25 µM
Cc1ccc(NC(=O)CSc2nnc(C)c(=O)n2N)cc1Cl,–,4.62,< 4.60,–,> 25 µM (inactive),> 25 µM,> 25 µM

# The next compounds have a higher pIC50 (TAG; run 1) than those just listed; values first:
pIC50 (TAG; mean of runs),pIC50 (TAG; run 1),pIC50 (TAG; run 2),IC50 (TAG; mean of runs),SMILES,IC50 cytotoxicity (DAPI nuclear signal decrease) (DAPI; mean of runs),IC50 cytotoxicity (DAPI nuclear signal decrease) (DAPI; run 1),IC50 cytotoxicity (DAPI nuclear signal decrease) (DAPI; run 2)
4.91,4.95,4.88,–,O=C(Nc1cc2c3c(c1)C1CCCC1CN3CC1CCCC21)c1ccc([N+](=O)[O-])cc1 (centres undefined),> 25 µM (inactive),> 25 µM,> 25 µM
4.91,4.95,4.88,–,CCCCCc1cc(=O)oc2c(C(CCN3CCN(c4ccccc4)CC3)c3ccc(N(C)C)cc3)c(OC)cc(OC)c12 (centres undefined),> 25 µM (inactive),> 25 µM,> 25 µM
4.86,4.96,4.78,–,Cc1nc(N/N=C/c2cccc(F)c2)cc(N2CCOCC2)n1,> 25 µM (inactive),> 25 µM,> 25 µM
4.90,4.98,4.84,–,CN(C)CCNC(=O)c1cccc2ccc(-c3ccc(-c4ccccc4)cc3)nc12,> 25 µM (inactive),> 25 µM,> 25 µM
5.00,5.02,4.98,–,COc1ccc(CNC(=O)C[C@H]2C[C@H](C(=O)N3CCCCC3)[C@@]3(CCc4ccccc4)c4[nH]c5ccc(Cl)cc5c4CCN3C2=O)cc1OC,> 25 µM (inactive),> 25 µM,> 25 µM
4.86,5.02,4.74,–,Brc1ccc(C2=Nn3c(nnc3-c3n[nH]c4c3CCC4)SC2)cc1,> 25 µM (inactive),> 25 µM,> 25 µM
5.11,5.14,5.08,–,COc1cccc(C2c3c(C)nn(-c4ccc([N+](=O)[O-])cc4)c3N=C3C(=O)Nc4ccccc4N32)c1 (centres undefined),> 25 µM (inactive),> 25 µM,> 25 µM
5.16,5.14,5.18,–,C=CC[C@@H](CC(=O)N(CCO)Cc1ccccc1)C(=O)N[C@H](COC(=O)[C@@H](CC=C)Cc1ccc(F)cc1)Cc1ccccc1,> 25 µM (inactive),> 25 µM,> 25 µM
5.29,5.23,5.35,–,COc1cccc(/C=C/C(=C2\C(=O)N(c3ccccc3)N=C2C)c2ccc(Br)cc2)c1OC,> 25 µM (inactive),> 25 µM,> 25 µM
5.33,5.30,5.37,–,Nc1c(C(=O)Nc2ccccc2)c2nc3ccccc3nc2n1CCCN1CCOCC1,–,> 25 µM,> 25 µM
5.36,5.47,5.27,–,Cc1noc(C)c1CSc1nc2[nH]ncc2c(=O)n1-c1ccccc1,–,> 25 µM,> 25 µM
5.34,5.47,5.25,–,COc1cccc(-c2nc(-c3ccc(NC(=O)Cc4ccccc4OC)cc3)no2)c1,–,> 25 µM,> 25 µM
5.52,5.68,5.41,–,Nc1c(C(=O)Nc2ccccc2)c2nc3ccccc3nc2n1-c1ccc(O)cc1,–,> 25 µM,> 25 µM
